# From the SangsterLogP compilation
row,logP,Compound
1,0.26,CN(CCO)/N=N/c1ccc(C(N)=O)cc1
2,7.6,CCCCCCCCCCCCCCCCCCN(C)N=Nc1ccc(C(=O)O)cc1
3,4.15,CCCCCCCN(C)/N=N/c1ccc(C(N)=O)cc1
4,0.42,CC(C)N(C)N=Nc1ccc(C(=O)O)cc1
5,-0.13,C#CCN(C)N=Nc1ccc(C(=O)O)cc1
6,0.94,CN(Cc1ccccc1)N=Nc1ccc(C(=O)O)cc1
7,-0.22,CN(O)N=Nc1ccc(C(N)=O)cc1
8,3.59,CCCCCCN(C)N=Nc1ccc(C(N)=O)cc1
9,4.77,CCCCCCCCCCCCN(C)N=Nc1ccc(C(=O)O)cc1
10,2.37,CCCCCCCN(C)N=Nc1ccc(C(=O)O)cc1
11,0.03,CCN(C)N=Nc1ccc(C(=O)O)cc1
12,2.96,CCCCCCCCN(C)N=Nc1ccc(C(=O)O)cc1
13,0.38,C=CCN(C)N=Nc1ccc(C(=O)O)cc1
14,1.17,CN(C)/N=N/c1ccc(C(N)=O)cc1
15,6.58,CCCCCCCCCCCCN(C)N=Nc1ccc(C(N)=O)cc1
16,-0.29,CN(C)/N=N/c1ccc(C(=O)O)cc1
